The text below walks through data of US11504410B2, “Neuroprotection and neuroregeneration by pterostilbene and compositions thereof” (THERAPEUTIC SOLUTIONS INTERNATIONAL, INC., priority 2020, dated 2022).

Series [1] in a line: Relative bioavailability of pterostilbene. To be noted: compared with creatine monohydrate. It is filed as in vivo. The source says: Without being bound by any particular theory, due to its improved solubility, pterostilbene is also expected to have better oral absorption properties compared to various other neuroprotectants. As used herein, “bioavailability” refers to the rate and amount of a drug or supplement that reaches the systemic circulation of a patient following administration of the drug or supplement. […] The terms “treatment,” “treating,” and “treat, are used herein to refer generally to obtaining a desired pharmacological and/or physiological effect. The effect may be prophylactic in terms of completely or partially preventing a disease or symptom thereof and/or may be therapeutic in terms of a partial or complete stabilization or cure for a disease and/or adverse effect attributable to the disease. “Treatment” as used herein covers any treatment of a disease in a subject, and includes: (a) preventing the disease or symptom from occurring in a subject which may be predisposed to the disease or symptom, but has not yet been diagnosed as having it; (b) inhibiting the disease symptom, i.e., arresting its development; or (c) relieving the disease symptom, i.e., causing regression of the disease or symptom.

The test system of series [2] is classical complement activation pathway. To be noted: 15 U intravenously, cited from earlier work.
Series [3] shares this test system. To be noted: cited from earlier work.

Turning to `COc1cc(/C=C/c2ccc(O)cc2)cc(OC)c1` [pterostilbene], the “relative bioavailability greater than creatine monohydrate” value in series [1] is reported as “at least 50%”.

Take “C1-INH: C1-esterase inhibitor, inhibits the classical complement activation pathway”: in series [2] (48 hours after ischemia), the “improvement of focal neurologic deficits” value is given as 54%, the “improvement of general neurologic deficits” value is listed as 36% and the “infarct volume of total brain” value was 6.69%+/−2.93%. Also, the “neutral red staining in cortex, hippocampus, and striatum” value in series [2] is reported as “strong protective effect”. Further, the “mean arterial blood pressure (MABP) and arterial blood gases” value in series [3] (rat, in vivo) is “unaffected by the treatment”. For the same compound, the “regional cerebral blood flow (rCBF)” value in series [3] (rats, after occlusion, versus vehicle) is “No difference was noted between experimental groups”. Further, the “reduction of infarct volume” value in series [3] (rats, infusion over 30 min after occlusion, evaluated after 5 days survival) is recorded as 72%.
